# From PubChem BioAssay AID1963960 (Molecular Pharmacology Branch, DTP, NCI, 2024)
# Test system: MDA-MB-468 spheroids with HUVEC/MSC, viability
# Assay: Anticancer human tumor MDA-MB-468 cell line growth inhibition [PI3K];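 further: spheroids exposed to agents for seven days before readout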;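 on viability, T/C: 100% = DMSO vehicle control viability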
# Settings: for IC50: curve of first compound; for viability, T/C: stronger effect = lower value
# Description: Combinatorial screen of targeted agents with the PI3K inhibitors inavolisib, alpelisib, duvelisib, and copanlisib in multi-cell type tumor spheroids
# A high-throughput screen of multi-cell type tumor spheroids was designed to identify active combinations of targeted small molecules and PI3K pathway inhibitors. Complex spheroids include a stromal component modeled by human endothelial cells (HUVEC) and fibroblasts modeled by human mesenchymal stem cells (MSCs). The concentration ranges selected for each drug and investigational agent were based upon clinically achievable concentrations if the clinical Cmax of the agent was known.
# Compounds. The drugs and investigational agents: inavolisib (NSC800729), alpelisib (NSC765974), duvelisib (NSC772469), copanlisib (NSC816437), ipatasertib (NSC767898), afuresertib (NSC778305), talazoparib (NSC767125), sapanisertib (NSC764658), selumetinib (NSC741078), tovorafenib (DAY101, NSC766906), vemurafenib (NSC761431), ravoxertinib (NSC781343), sotorasib (NSC818433), MRTX1133 (NSC 836407), abemaciclib (NSC 768073), palbociclib (NSC758247), venetoclax (NSC 766270), SY5609 (NSC837396), enzalutamide (NSC755605), and darolutamide (NSC825331), were obtained from the National Cancer Institute (NCI) Developmental Therapeutics Program Chemical Repository. The FDA-approved anticancer drug set is available from the NCI Developmental Therapeutics Program. […] The stock solutions were prepared in dimethyl sulfoxide (DMSO, Sigma-Aldrich, St. Louis, MO, cat. D2650) at 800-fold the tested concentration and stored at -70 degrees C prior to their use. All drugs and investigational agents were tested over a range starting from a high concentration at or near the clinical Cmax and decreasing in half-log increments. If the clinical Cmax for an agent had not been determined, the highest concentration tested was 10 microM.
# Cell Culture. All cells were maintained in an incubator at 37 degrees C and 5% CO2 with 95% humidity. The PDC lines were cultured according to standard operating procedures established by the NCI PDMR (https://pdmr.cancer.gov/sops/default.htm). All PDCs were thawed and cultured in Matrigel-coated flasks prepared with a working solution of 1X Ham's F-12 nutrient mix, without supplementation (Invitrogen, Waltham, MA, cat. 11765054), 100 U/mL penicillin-streptomycin (Invitrogen, cat. 15140122), and 2.5% Matrigel (Corning Inc., Corning, NY, cat. 354248) for the first three passages. The 354836-022-R-J1-PDC, 475296-252-R-J1-PDC, and 997726-040-R-J2-PDC lines were cultured in 6A media, which includes advanced DMEM/F-12 (Thermo Fisher Scientific, cat. 12634028), 10 mM HEPES (Thermo Fisher Scientific, cat. 15630080), 1X GlutaMAX supplement (Thermo Fisher Scientific, cat. 35050061), 0.1 mg/mL primocin (InvivoGen, San Diego, CA, cat. ant-pm-2), 10% defined fetal bovine serum, heat inactivated (HyClone Laboratories Inc., Logan, UT, cat. SH30070.03HI), 50% L-WRN conditioned media (ATCC, cat. CRL-3276), 1.25 mM N-Acetyl-L-cysteine (Sigma-Aldrich, cat. A9165), 10 mM nicotinamide (Sigma-Aldrich, cat. N0636), 1X B-27 supplement (Thermo Fisher Scientific, cat. 17504044), 1X N-2 supplement (Thermo Fisher Scientific, cat. 17502048), and 10 microM Y-27632 dihydrochloride (Tocris Bioscience, Bristol, United Kingdom, cat. 1254). The 624824-186-R-J2-PDC line was cultured in 6C/Colon 1B media, which includes all 6A media components plus 50 ng/mL human EGF recombinant protein (Thermo Fisher Scientific, cat. PHG0311). […]
# [1] = second compound 0.00316 µM, first compound 0.0316 µM
# [2] = second compound 0.00316 µM, first compound 0.1 µM
# [3] = second compound 0.00316 µM, first compound 0.316 µM
# [4] = second compound 0.00316 µM, first compound 1 µM
# [5] = second compound 0.00316 µM, first compound 3.16 µM
# [6] = second compound 0.00316 µM, first compound 10 µM
# [7] = second compound 0.01 µM, first compound 0.0316 µM
# [8] = second compound 0.01 µM, first compound 0.1 µM
# [9] = second compound 0.01 µM, first compound 0.316 µM
# [10] = second compound 0.01 µM, first compound 1 µM
# [11] = second compound 0.01 µM, first compound 3.16 µM
# [12] = second compound 0.01 µM, first compound 10 µM
# [13] = second compound 0.0316 µM, first compound 0.0316 µM
# [14] = second compound 0.0316 µM, first compound 0.1 µM
# [15] = second compound 0.0316 µM, first compound 0.316 µM
# [16] = second compound 0.0316 µM, first compound 1 µM
# [17] = second compound 0.0316 µM, first compound 3.16 µM
# [18] = second compound 0.0316 µM, first compound 10 µM
# [19] = second compound 0.1 µM, first compound 0.0316 µM
# [20] = second compound 0.1 µM, first compound 0.1 µM
# [21] = second compound 0.1 µM, first compound 0.316 µM
# [22] = second compound 0.1 µM, first compound 1 µM
# [23] = second compound 0.1 µM, first compound 3.16 µM
# [24] = second compound 0.1 µM, first compound 10 µM
# [25] = second compound 0.316 µM, first compound 0.0316 µM
# [26] = second compound 0.316 µM, first compound 0.1 µM
# [27] = second compound 0.316 µM, first compound 0.316 µM
# [28] = second compound 0.316 µM, first compound 1 µM
# [29] = second compound 0.316 µM, first compound 3.16 µM
# [30] = second compound 0.316 µM, first compound 10 µM
# [31] = second compound 1 µM, first compound 0.0316 µM
# [32] = second compound 1 µM, first compound 0.1 µM
# [33] = second compound 1 µM, first compound 0.316 µM
# [34] = second compound 1 µM, first compound 1 µM
# [35] = second compound 1 µM, first compound 3.16 µM
# [36] = second compound 1 µM, first compound 10 µM
smiles,measurement,setting,value
CC1(C)CCC(CN2CCN(c3ccc(C(=O)NS(=O)(=O)c4ccc(NCC5CCOCC5)c([N+](=O)[O-])c4)c(Oc4cnc5[nH]ccc5c4)c3)CC2)=C(c2ccc(Cl)cc2)C1 + CC(Nc1ccc2c(c1)OCCn1cc(N3C(=O)OCC3C(F)F)nc1-2)C(N)=O,IC50,second compound 0.00316 µM,4.86 µM
same,IC50,second compound 0.01 µM,5.03 µM
same,IC50,second compound 0.0316 µM,4.3 µM
same,IC50,second compound 0.1 µM,4.32 µM
same,IC50,second compound 0.316 µM,3.63 µM
same,IC50,second compound 1 µM,3.48 µM
same,"viability, T/C",[1],94.2%
same,"viability, T/C",[2],99.9%
same,"viability, T/C",[3],82.1%
same,"viability, T/C",[4],91.6%
same,"viability, T/C",[5],74.4%
same,"viability, T/C",[6],8.95%
same,"viability, T/C",[7],91.8%
same,"viability, T/C",[8],108%
same,"viability, T/C",[9],90.1%
same,"viability, T/C",[10],108%
same,"viability, T/C",[11],77.5%
same,"viability, T/C",[12],9.38%
same,"viability, T/C",[13],97.6%
same,"viability, T/C",[14],89.3%
same,"viability, T/C",[15],71.6%
same,"viability, T/C",[16],94.6%
same,"viability, T/C",[17],64.6%
same,"viability, T/C",[18],9.45%
same,"viability, T/C",[19],97.9%
same,"viability, T/C",[20],95.7%
same,"viability, T/C",[21],83.4%
same,"viability, T/C",[22],83.8%
same,"viability, T/C",[23],67.2%
same,"viability, T/C",[24],10%
same,"viability, T/C",[25],89.6%
same,"viability, T/C",[26],74.7%
same,"viability, T/C",[27],96%
same,"viability, T/C",[28],76.5%
same,"viability, T/C",[29],56.2%
same,"viability, T/C",[30],8.04%
same,"viability, T/C",[31],80.6%
same,"viability, T/C",[32],79.8%
same,"viability, T/C",[33],79.6%
same,"viability, T/C",[34],90%
same,"viability, T/C",[35],53.8%
same,"viability, T/C",[36],9.1%
C[C@@H](NC(=O)c1ncnc(N)c1Cl)c1ncc(C(=O)Nc2cc(C(F)(F)F)c(Cl)cn2)s1 + CC(Nc1ccc2c(c1)OCCn1cc(N3C(=O)OCC3C(F)F)nc1-2)C(N)=O,IC50,second compound 0.00316 µM,> 10 µM
same,IC50,second compound 0.01 µM,> 10 µM
same,IC50,second compound 0.0316 µM,> 10 µM
same,IC50,second compound 0.1 µM,> 10 µM
same,IC50,second compound 0.316 µM,> 10 µM
same,IC50,second compound 1 µM,> 10 µM
same,"viability, T/C",[1],91.6%
same,"viability, T/C",[2],102%
same,"viability, T/C",[3],93.7%
same,"viability, T/C",[4],102%
same,"viability, T/C",[5],104%
same,"viability, T/C",[6],108%
same,"viability, T/C",[7],104%
same,"viability, T/C",[8],105%
same,"viability, T/C",[9],105%
same,"viability, T/C",[10],107%
same,"viability, T/C",[11],93.3%
same,"viability, T/C",[12],81%
same,"viability, T/C",[13],104%
same,"viability, T/C",[14],92.2%
same,"viability, T/C",[15],102%
same,"viability, T/C",[16],97.3%
same,"viability, T/C",[17],93.3%
same,"viability, T/C",[18],81.4%
same,"viability, T/C",[19],98.7%
same,"viability, T/C",[20],85.2%
same,"viability, T/C",[21],93.2%
same,"viability, T/C",[22],101%
same,"viability, T/C",[23],101%
same,"viability, T/C",[24],86.2%
same,"viability, T/C",[25],83.3%
same,"viability, T/C",[26],83.7%
same,"viability, T/C",[27],94.7%
same,"viability, T/C",[28],99.7%
same,"viability, T/C",[29],108%
same,"viability, T/C",[30],68.2%
same,"viability, T/C",[31],97.3%
same,"viability, T/C",[32],89.5%
same,"viability, T/C",[33],89.6%
same,"viability, T/C",[34],99.5%
same,"viability, T/C",[35],91%
same,"viability, T/C",[36],74.1%
Cn1ncnc1[C@H]1c2n[nH]c(=O)c3cc(F)cc(c23)N[C@@H]1c1ccc(F)cc1 + CC(Nc1ccc2c(c1)OCCn1cc(N3C(=O)OCC3C(F)F)nc1-2)C(N)=O,IC50,second compound 0.00316 µM,> 0.1 µM
same,IC50,second compound 0.01 µM,> 0.1 µM
same,IC50,second compound 0.0316 µM,> 0.1 µM
same,IC50,second compound 0.1 µM,0.0862 µM
same,IC50,second compound 0.316 µM,0.0424 µM
same,IC50,second compound 1 µM,0.0516 µM
same,"viability, T/C","second compound 0.00316 µM, first compound 0.000316 µM",93.1%
same,"viability, T/C","second compound 0.00316 µM, first compound 0.001 µM",87.6%
same,"viability, T/C","second compound 0.00316 µM, first compound 0.00316 µM",87.3%
same,"viability, T/C","second compound 0.00316 µM, first compound 0.01 µM",96.8%
same,"viability, T/C",[1],72.2%
same,"viability, T/C",[2],55.4%
same,"viability, T/C","second compound 0.01 µM, first compound 0.000316 µM",90%
same,"viability, T/C","second compound 0.01 µM, first compound 0.001 µM",99.3%
same,"viability, T/C","second compound 0.01 µM, first compound 0.00316 µM",81%
same,"viability, T/C","second compound 0.01 µM, first compound 0.01 µM",85.6%
same,"viability, T/C",[7],76.3%
same,"viability, T/C",[8],56.5%
same,"viability, T/C","second compound 0.0316 µM, first compound 0.000316 µM",107%
same,"viability, T/C","second compound 0.0316 µM, first compound 0.001 µM",88.9%
same,"viability, T/C","second compound 0.0316 µM, first compound 0.00316 µM",83%
same,"viability, T/C","second compound 0.0316 µM, first compound 0.01 µM",83.5%
same,"viability, T/C",[13],74.5%
same,"viability, T/C",[14],47.3%
same,"viability, T/C","second compound 0.1 µM, first compound 0.000316 µM",99.5%
same,"viability, T/C","second compound 0.1 µM, first compound 0.001 µM",77.4%
same,"viability, T/C","second compound 0.1 µM, first compound 0.00316 µM",72.4%
same,"viability, T/C","second compound 0.1 µM, first compound 0.01 µM",80.2%
same,"viability, T/C",[19],75.6%
same,"viability, T/C",[20],45.5%
same,"viability, T/C","second compound 0.316 µM, first compound 0.000316 µM",93.4%
same,"viability, T/C","second compound 0.316 µM, first compound 0.001 µM",73.6%
same,"viability, T/C","second compound 0.316 µM, first compound 0.00316 µM",73.9%
same,"viability, T/C","second compound 0.316 µM, first compound 0.01 µM",67.5%
same,"viability, T/C",[25],52.4%
same,"viability, T/C",[26],40.6%
same,"viability, T/C","second compound 1 µM, first compound 0.000316 µM",73.7%
same,"viability, T/C","second compound 1 µM, first compound 0.001 µM",73.4%
same,"viability, T/C","second compound 1 µM, first compound 0.00316 µM",68.7%
same,"viability, T/C","second compound 1 µM, first compound 0.01 µM",67%
same,"viability, T/C",[31],56%
same,"viability, T/C",[32],41.3%
